Laboratory results from patent US20030077576A1, “Use of monoclonal antibodies and functional assays for prediction of risk of opportunistic infection” (priority 2001, published 2003).

Tests used:
Type in all cases: cell-based, human
monocyte VLA-5 (CD49e) = conditions: for log fluorescence intensity for VLA-5 (CD49e stained with mAb SAM-1) in the CD14+ (monocyte) population, FN120: 2 μM FN120 for 2 h in the presence of the protease inhibitor; for log fluorescence intensity for VLA-5 (CD49e stained with mAb SAM-1) in the CD14+ (monocyte) population, FN120 / log fluorescence intensity for VLA-5 (CD49e stained with mAb SAM-1) in the CD14+ (monocyte) population, No Rx: 0.2 mM PMSF, 2 mM CdCl2, 40 μM bestatin, 10 μM 1,10 phenanthroline, 0.1 mM EGTA, mean ± SEM, three donors; for log fluorescence intensity for VLA-5 (CD49e stained with mAb SAM-1) in the CD14+ (monocyte) population, No Rx: protease inhibitor alone, no FN120, 2 h
Procedure: Briefly, heparinized blood was distributed in 0.1-ml aliquots into polypropylene tubes for incubation with saturating concentrations of primary or secondary antibodies at 4° C. for 30 min. Incubations were separated by two washes with ice-cold Dulbecco's PBS (Gibco Laboratories, Grand Island, N.Y.). FITC-conjugated sheep anti-mouse Ig was used at a dilution of 1:120. PE-conjugated anti-CD14 (clone 116, Beckman Coulter), added after the secondary antibody, was used according to the manufacturer's directions. After leukocytes were stained and washed, red cells were lysed with FACS Lysing Solution (Becton Dickinson). Leukocytes were washed again, fixed in 1% paraformaldehyde, and analyzed by flow cytometry the day of the experiment. […] Total white blood cell (Coulter Counter, Coulter Electronics, Hialeah, Fla.) and differential counts were measured in aliquots of the same blood samples used for immunofluorescence studies. Tests of control blood donors were randomly interspersed among patient samples.
Flow cytometry was performed on an Epics Profile 1 with three fluorescence channels (Coulter Cytometry, Hialeah, Fla.) that has an argon laser tuned to 488 nm. Daily alignment and calibration of the instrument was performed with DNA-check and Standard-Brite fluorescent beads (Coulter). Green (FL1), orange (FL2), and red (FL3) fluorescence signals are measured on a four-decade logarithmic scale. Linearity of log fluorescence intensity was checked with Immuno-Brite fluorescent beads. Appropriate compensations for spectral overlap between the three channels is carried out prior to calculating data. The mean intensity of fluorescence, measured on a 4 decade logarithmic scale, was converted to a linear scale, using a 256 channel histogram, to give a mean channel number, also known as the mean channel fluorescence (MCF). This was used to estimate the average fluorescence emission of cells reactive with specific monoclonal antibodies. Cell surface display of specific mAbs were precisely delineated when necessary by means of quantitative flow cytometry, using the Quantum Simply Cellular Microbeads Kit from Sigma BioSciences, St. Louis, Mo. This kit contained four bead populations that bind graduated quantities of antibodies per bead. […] By interpolation, this standard curve was used to accurately estimate the quantity of antibody bound to other cellular targets. Leukocytes were initially selected for fluorescence analysis by a combination of right-angle and low angle forward light scatter. Two color fluorescence, with PE conjugated anti-CD14 as a qualifier was used specifically to identify monocytes, and anti-CD3 to identify T lymphocytes. Other lymphoid elements were identified, as required, by using appropriate direct antibody conjugates. At least 2500 monocytes were counted in each sample. Fluorescence measurements from isotype controls were subtracted from data obtained with all reported antibodies.
To determine how fragments of fibronectin might affect VLA-5 expression, the effect of adding purified 120 kD and 40 kD fragments of fibronectin to heparin-anticoagulated whole blood from normal donors was measured. The 120 kD fragment has an RGD motif and binds to VLA-5 on cells.

U937 monocytoid cells = test: FN120 treatment of U937 monocytoid cells: proteinase-3 expression and VLA-5 shedding; conditions: U937 cells treated with FN120
From the text: To further investigate how FN120 causes VLA-5 shedding, U937 monocytoid cells were studied. These display greater quantities of VLA-5 than blood monocytes. They also display the serine protease, proteinase-3, when activated (Rao et al., 1996). U937 cells were washed repeatedly, to remove exogenous fibronectin and serum proteases, and resuspended in serum-free medium for treatment with FN120. […] Treating the cells with polyclonal anti-proteinase-3 or serine proteinase inhibitors such as alpha-antitrypsin blocked proteinase-3 activity. Blocking proteinase-3 activity with either agent prevented hydrolysis and release of VLA-5 molecules that are otherwise shed when U937 cells are incubated with FN120 as shown in FIG. 11.

CD14+ monocytes = test: Monocyte migration into collagenous matrices with or without native fibronectin; conditions: 4 hrs at 37° C., pads impregnated with full-length 220 kD native fibronectin
Procedure: Briefly, monocytes were incubated with collagenous matrices, half of which had been impregnated with full-length 220 kD native fibronectin. After 4 hrs contact at 37° C., unbound MNLs were washed away. The pads were dissolved with collagenase to recover and count the cells that had migrated into the matrix (Birdsall et al., 1997).

Compound | log fluorescence intensity for VLA-5 (CD49e stained with mAb SAM-1) in the CD14+ (monocyte) population, FN120 (monocyte VLA-5 (CD49e)) | log fluorescence intensity for VLA-5 (CD49e stained with mAb SAM-1) in the CD14+ (monocyte) population, No Rx (monocyte VLA-5 (CD49e)) | further results
c1cnc2c(c1)ccc1cccnc12 [1,10 phenanthroline] | 3.1 ± 0.6 | 4.9 ± 0.6 | –
O=CC[C@@H](O)[C@H](O)[C@H](O)CO [2-deoxyglucose] | – | – | loss of VLA-5 with 120 kD fibronectin fragments when cellular metabolism is inhibited (monocyte VLA-5 (CD49e); 2-deoxyglucose and sodium azide together, with 120 kD fibronectin fragments): failed to occur
[Cl][Cd][Cl] [CdCl2] | 2.2 ± 0.3 | 4.7 ± 0.5 | –
O=C(O)CN(CCOCCOCCN(CC(=O)O)CC(=O)O)CC(=O)O [EGTA] | 2.8 ± 0.6 | 5.1 ± 0.3 | –
O=S(=O)(F)Cc1ccccc1 [PMSF, phenylmethylsulfonylfluoride] | 5.8 ± 0.7 | 5.4 ± 0.5 | –
CC(C)C[C@H](NC(=O)[C@@H](O)[C@H](N)Cc1ccccc1)C(=O)O [bestatin] | 2.4 ± 0.5 | 4.9 ± 0.3 | –
alpha-antitrypsin: serine proteinase inhibitor | – | – | proteinase-3 activity (U937 monocytoid cells): blocked
fibronectin | – | – | CD14+ monocytes accumulated in fibronectin-containing pads versus plain collagen pads (CD14+ monocytes): three times as many
